Tested on: human induced pluripotent stem cell-derived cardiomyocytes (hiPSC-CM)
Assay: Optical recordings of calcium transients in hiPSC-CM monolayers
Type: cell-based
Procedure: Human induced pluripotent stem cell-derived cardiomyocytes (hiPSC-CM) were purchased from AXOL Bioscience. The hiPSC-CM were thawed and plated following the manufacturer’s protocol. Briefly, cells were plated on Matrigel (Corning) pre-coated glass coverslips cultivated in 96-multiwell plates (Falcon). Matrigel was diluted in sterile DMEM/F12 medium (Gibco) (1:130) and incubated for 2 hr at 37°C before plating the cells. hiPSC-CM were cultured at 37°C and 5% CO2. Cultured hiPSC-CM were fed every other day. […]
CaT fluorescence recordings from cell monolayers were recorded using a Leica DM LFS upright microscope. […] Fluorescence signals were passed through the emission filter, collected by a photodiode, and amplified with an Axopatch 200B patch clamp amplifier (Axon Instruments). Calcium fluorescence signals were low-pass Bessell-filtered (Frequency Devices) at 100 Hz, digitized at 1 kHz, and recorded using Clampex 9.2 and analyzed using Clampfit 9.2. […] Since hiPSC-CM were spontaneously beating and at slightly different frequencies between monolayers, the frequency of the action potentials was calculated as the inverse of the time between CaTs. The action potential duration (APD) was measured in the absence and the presence of DHA-Glycine. The APD90 (or the time required to achieve the 90% of repolarization of the CaT) was measured in all the experiments to test the effects of DHA-glycine. […]

Q: With `CC/C=C\C/C=C\C/C=C\C/C=C\C/C=C\C/C=C\CCC(=O)NCC(=O)O` [DHA-glycine, docosahexaenoyl glycine] as the compound, how does the “CaT APD90c” value (30 µM, corrected by modified Fridericia's formula, control 472 ± 27 ms, n = 3) read?
A: 317 ± 9 ms

Q: And the “effect on hiPSC-derived cardiomyocytes at lower doses” value (doses lower than 30 μM)?
A: did not get significant effects at low doses

Reference: article PMC7159882, “Polyunsaturated fatty acid analogues differentially affect cardiac NaV, CaV, and KV channels through unique mechanisms” (eLife, 2020)
